Reference: patent US11591331B2, “PARP1 inhibitors and uses thereof” (Xinthera, Inc., priority 2021, dated 2023)

Experiments:
DLD-1 BRCA2(−/−) = test: Cell growth inhibition assay (CellTiter-Glo cell viability, 7 days); assay type: cell-based; conditions: Homo sapiens, 168 h, DLD-1 BRCA2(-/-) cells
[1] = system: MDA-MB-436 (mutated BRCA1) cell lines; test: as above; assay type: cell-based; conditions: Homo sapiens, 168 h, MDA-MB-436 cells
DLD-1 parental = test: as above; assay type: cell-based; conditions: Homo sapiens, 168 h, DLD-1 parental cells
Source text: Example A: Cell Growth Inhibition Assay
The objective of this study is to evaluate the effect of invention compounds on cell proliferation through the cell viability assay in DLD-1 BRCA2(−/−) and parental isogenic pair and MDA-MB-436 (mutated BRCA1) cell lines. The CellTiter-Glo (CTG) based cell viability assay is designed to determine the number of viable cells in the culture because of compound effect, by quantifying ATP, which indicates the presence of metabolically active cells.
DLD-1 BRCA2(−/−) and parental isogenic pair were cultured in RPMI 1640 supplemented with 10% fetal bovine serum (FBS), and MDA-MB-436 cells were cultured in DMEM supplemented with 10% FBS. Both are culture at 37° C. with 5% CO2. Invention compounds were distributed to the 384 well plate (Corning, 3764) using Echo acoustic liquid handler to form a 1:3 serially diluted final concentration with top dose of 10 or 30 μM. The cells were seeded into the plate in the density of 50 cells/well (DLD-1 parental), 200 cells/well (DLD-1 BRCA2−/−), or 500 cells/well (MDA-MB-436). After a short spun, the cells were cultured in a well moisturized incubator at 37° C. with 5% CO2 for 7 days without disturbance. The cell viability was measured by CellTiter Glo 2.0 assay kit (Promega, G9243), and growth inhibition rate was calculated and plotted against final compound concentration, and the data were fitted in Xfit to generate IC50.

[2] = system: Human cryopreserved hepatocytes; test: In vitro human hepatic clearance in cellular relay format; assay type: in vitro ADME; conditions: predicted human hepatic clearance, well-stirred liver model, scaled from in vitro CLint
Protocol: (§1) Example C: In Vitro Human Hepatic Clearance in Cellular Relay Format
(§2) Working stocks of individual test articles were prepared at concentrations of 100 μM by diluting 10 mM stocks prepared in DMSO 100-fold (v:v) into ACN/1H2O (50/50, v:v). Human cryopreserved hepatocytes were thawed in a 37° C. water bath in <2 min., suspended in thawing media, and then centrifuged at 100×g for 10 min. Thawing media was aspirated, and pelleted hepatocytes were resuspended into incubation media at 1.5E+06 cells/mL. Cell viability was determined using an Acridine Orange/Propidium Iodine stain, and hepatocytes were further diluted with incubation media to 0.5E+06 viable cells/mL. Hepatocyte aliquots of 495 μL were added to wells of a 24-well plate, and test article incubations were initiated by the addition of 5 μL of 100 μM working stocks. Plates were incubated at 37° C. in a 5% CO2 atmosphere at 95% relative humidity on an orbital shaker at 300 rpm. Incubations were performed in duplicate. At time=0 and 4 hrs., aliquots of each incubation were extracted with 6 volumes ACN containing internal standards. After 4 hrs., hepatocytes were removed from the incubations via centrifugation, and supernatants were stored frozen until the following day at which point incubations were reinitiated by diluting thawed supernatants with freshly thawed hepatocytes in incubation media, again to a final concentration of 0.5E+06 viable cells/mL. These steps were repeated for a total of 5 incubations of 4 hrs. each covering 20 total hours of incubation. Incubational losses due to cellular uptake, nonspecific binding, and dilution at each relay step were corrected for. Supernatants of all incubation aliquots were diluted into ultrapure water prior to analysis via LC/MS/MS. In vitro intrinsic clearances (CLint) in μL/min/IE+06 cells were determined for each incubation from calculated in vitro half-lives determined using a standard log-linear regression approach. In vitro CLint values were scaled up using the following physiological scaling factors: 99E+06 cells/g human liver and 25.7 g human liver/kg body weight. Scaled intrinsic clearance values were finally introduced to the well-stirred liver model for the purpose of calculating predicted human hepatic clearance (CLhep,pred) in mL/min/kg assuming a human liver blood flow of 20.7 mL/min/kg and making no corrections for test article binding to red blood cells, plasma proteins, or components of the incubation system. S-Warfarin, Disopyramide and Diazepam were used as assay controls.

[3] = as above; assay type: in vitro ADME; conditions: cryopreserved hepatocytes in suspension (relay format); human hepatocytes relay, 5 incubations of 4 hrs, 0.5E+06 viable cells/mL
Protocol: as §1, §2

O=C(NC1CC1)c1ccc(N2CCN(Cc3cnc4cc(C5CC5)c(=O)[nH]c4c3)CC2)cn1 [Example 24, N-cyclopropyl-5-{4-[(7-cyclopropyl-6-oxo-5H-1,5-naphthyridin-3-yl)methyl]piperazin-1-yl}pyridine-2-carboxamide]
EC50 (DLD-1 BRCA2(−/−)): 0.0025 µM | EC50 [1]: 0.0014 µM | EC50 (DLD-1 parental): > 30 µM | Clhep,pred [2]: <0.9 mL/min/kg | half-life at 1 µM [3]: > 62.1 h

CCc1cc2ncc(CN3CCN(c4cnc(C(=O)NC)c(F)c4)CC3)cc2[nH]c1=O [Example 5, 5-(4-((7-ethyl-6-oxo-5,6-dihydro-1,5-naphthyridin-3-yl)methyl)piperazin-1-yl)-3-fluoro-N-methylpicolinamide]
EC50 (DLD-1 BRCA2(−/−)): 0.0025 µM | EC50 [1]: 0.0014 µM | EC50 (DLD-1 parental): 470 µM | Clhep,pred [2]: 0.53 mL/min/kg | half-life at 1 µM [3]: 109 h

CCc1cc2ncc(CN3CCN(c4ccc(C(=O)NC)nc4)CC3)cc2[nH]c1=O [AZD5305]
Clhep,pred [2]: 1.69 mL/min/kg | half-life at 1 µM [3]: 31.8 h

CCc1cc2ncc(CN3CCN(c4ccc(C(=O)NC)nc4C#N)CC3)cc2[nH]c1=O [Example 1, 6-cyano-5-{4-[(7-ethyl-6-oxo-5H-1,5-naphthyridin-3-yl)methyl]piperazin-1-yl}-N-methylpyridine-2-carboxamide]
EC50 (DLD-1 BRCA2(−/−)): 0.0014 µM | EC50 [1]: 0.00063 µM | EC50 (DLD-1 parental): 5000 µM | Clhep,pred [2]: 1.67 mL/min/kg | half-life at 1 µM [3]: 32.5 h

CCc1cc2ncc(CN3CCN(c4ccc(C(=O)NC)nc4)[C@H](C)C3)cc2[nH]c1=O [Example 2, 5-[(2R)-4-[(7-ethyl-6-oxo-5H-1,5-naphthyridin-3-yl)methyl]-2-methylpiperazin-1-yl]-N-methylpyridine-2-carboxamide]
EC50 (DLD-1 BRCA2(−/−)): 0.0048 µM | EC50 [1]: 0.004 µM | EC50 (DLD-1 parental): > 30 µM | Clhep,pred [2]: 1.71 mL/min/kg | half-life at 1 µM [3]: 31.5 h

CCc1cc2ncc(CN3CCN(c4ccc(C(=O)NC)nc4C(F)F)CC3)cc2[nH]c1=O [Example 14, 6-(difluoromethyl)-5-{4-[(7-ethyl-6-oxo-5H-1,5-naphthyridin-3-yl)methyl]piperazin-1-yl}-N-methylpyridine-2-carboxamide]
EC50 (DLD-1 BRCA2(−/−)): 0.001 µM | EC50 [1]: 0.00053 µM | EC50 (DLD-1 parental): > 30 µM

CCc1cc2ncc(CN3CCN(c4ccc(C(=O)NC)cc4C#N)CC3)cc2[nH]c1=O [Example 17, 3-cyano-4-{4-[(7-ethyl-6-oxo-5H-1,5-naphthyridin-3-yl)methyl]piperazin-1-yl}-N-methylbenzamide]
EC50 (DLD-1 BRCA2(−/−)): 0.0021 µM | EC50 [1]: 0.0011 µM | EC50 (DLD-1 parental): > 30 µM

CCc1cc2ncc(CN3CCN(c4ccc(C(=O)N[C@H](C)COC)nc4)CC3)cc2[nH]c1=O [Example 56]
EC50 (DLD-1 BRCA2(−/−)): 0.0071 µM | EC50 [1]: 0.0022 µM | Clhep,pred [2]: <0.9 mL/min/kg | half-life at 1 µM [3]: > 62.1 h

[2H]C([2H])(c1cnc2cc(CC)c(=O)[nH]c2c1)N1CCN(c2cnc(C(=O)NC)c(F)c2)CC1 [Example 35]
EC50 (DLD-1 BRCA2(−/−)): 0.0023 µM | EC50 [1]: 0.0013 µM | EC50 (DLD-1 parental): > 30 µM

CCc1cc2ncc(CN3CCN(c4ccc(C(=O)NCC(F)F)nc4)CC3)cc2[nH]c1=O [Example 13, N-(2,2-difluoroethyl)-5-{4-[(7-ethyl-6-oxo-5H-1,5-naphthyridin-3-yl)methyl]piperazin-1-yl} pyridine-2-carboxamide]
EC50 (DLD-1 BRCA2(−/−)): 0.001 µM | EC50 [1]: 0.00054 µM | EC50 (DLD-1 parental): > 30 µM

CCc1cc2ncc(CN3CCN(c4ccc(C(=O)NC)nc4)[C@H]4C[C@H]43)cc2[nH]c1=O (stereo in doubt) [Example 28]
EC50 (DLD-1 BRCA2(−/−)): 0.0032 µM | EC50 [1]: 0.0008 µM | EC50 (DLD-1 parental): 33 µM

CNC(=O)c1ccc(N2CCN(Cc3cnc4cc(C5CC5)c(=O)[nH]c4c3)CC2)cn1 [Example 15, 5-{4-[(7-cyclopropyl-6-oxo-5H-1,5-naphthyridin-3-yl)methyl]piperazin-1-yl}-N-methylpyridine-2-carboxamide]
EC50 (DLD-1 BRCA2(−/−)): 0.0018 µM | EC50 [1]: 0.0013 µM | EC50 (DLD-1 parental): > 30 µM | Clhep,pred [2]: <0.9 mL/min/kg | half-life at 1 µM [3]: > 62.1 h

CCc1cc2ncc(CN3CCN(c4ccc(-n5cnnc5)cc4)CC3)cc2[nH]c1=O [Example 32]
EC50 (DLD-1 BRCA2(−/−)): 0.077 µM | EC50 [1]: 0.015 µM | EC50 (DLD-1 parental): > 30 µM

CNC(=O)c1ccc(N2CCN(Cc3ccc4c(c3)[nH]c(=O)c3ccoc34)CC2)cn1 [Example 11, N-methyl-5-[4-({4-oxo-5H-furo[3,2-c]quinolin-7-yl}methyl)piperazin-1-yl]pyridine-2-carboxamide]
EC50 (DLD-1 BRCA2(−/−)): 0.0028 µM | EC50 [1]: 0.0011 µM | EC50 (DLD-1 parental): 440 µM

CCc1cc2ncc(CN3CCN(c4ccc(C(=O)NC)nc4)[C@@H](C)C3)cc2[nH]c1=O (racemic) [Example 27]
EC50 (DLD-1 BRCA2(−/−)): 0.0041 µM | EC50 [1]: 0.001 µM | EC50 (DLD-1 parental): 32 µM

CCc1cc2ncc(CN3CCN4c5ccc(C(=O)NC)nc5OC[C@H]4C3)cc2[nH]c1=O [Example 22A, (R)-3-((7-ethyl-6-oxo-5,6-dihydro-1,5-naphthyridin-3-yl)methyl)-N-methyl-1,2,3,4,4a,5-hexahydropyrazino[1,2-d]pyrido[2,3-b][1,4]oxazine-8-carboxamide]
EC50 (DLD-1 BRCA2(−/−)): 0.0015 µM | EC50 [1]: 0.001 µM | EC50 (DLD-1 parental): > 30 µM

CCc1cc2ncc(CN3CCC(c4ccc(C(=O)NC)nc4)CC3)cc2[nH]c1=O [Example 16, 5-(1-((7-ethyl-6-oxo-5,6-dihydro-1,5-naphthyridin-3-yl)methyl)piperidin-4-yl)-N-methylpicolinamide]
EC50 (DLD-1 BRCA2(−/−)): 0.0042 µM | EC50 [1]: 0.0013 µM | EC50 (DLD-1 parental): > 30 µM

CCc1cc2ncc(CN3CCN(c4ccc(C(=O)NC)nc4)[C@H](CF)C3)cc2[nH]c1=O [Example 68]
EC50 (DLD-1 BRCA2(−/−)): 0.0041 µM | EC50 [1]: 0.0015 µM | EC50 (DLD-1 parental): > 30 µM

CCc1cc2ncc(CN3CC(Oc4ccc(C(=O)NC)nc4)C3)cc2[nH]c1=O [Example 25, 5-({1-[(7-ethyl-6-oxo-5H-1,5-naphthyridin-3-yl)methyl]azetidin-3-yl}oxy)-N-methylpyridine-2-carboxamide]
EC50 (DLD-1 BRCA2(−/−)): 0.0087 µM | EC50 [1]: 0.0042 µM | EC50 (DLD-1 parental): > 30 µM
